In the test the target is Alkaline phosphatase, placental type (Homo sapiens) (UniProt P05187). The test can be described thus: PLAP enzyme activators, dose response, mouse IAP activator project, biochemical, uHTS hits (AID 488878). Particulars: purified human PLAP enzyme activity.

Structures are written as SMILES. pEC50: −log10 of the molar value. Activity calls are given as the source filed them. How the calls were made is not given here. Bounds are passed on as bounds.

Regarding `Cc1ccc(C)c(NC(=O)CCNS(=O)(=O)c2ccc3[nH]c(=O)oc3c2)c1`, the EC50 was > 100 µM (inactive).

For `Cc1ccc(NC(=O)CCNS(=O)(=O)c2ccc3[nH]c(=O)oc3c2)cc1F`, the EC50 was > 100 µM (inactive).

Regarding `O=C(NNC(=S)NC(=O)c1cccs1)c1ccc(O)cc1`, the pEC50 is 4.43.

Regarding `O=c1[nH]c(/C=C\c2ccc(O)c(O)c2)nc(O)c1[N+](=O)[O-]`, the EC50 was > 100 µM (inactive).

On to `O=C(CCO)c1ccc(O)cc1`, for which the pEC50 is 4.72.

As for `Oc1cc2c(cc1O)C1c3ccc(O)c(O)c3OCC1(O)C2` (configuration not stated), the pEC50 is 4.22.

Turning to `Oc1ccc(/C=N/Nc2cc(N3CCCC3)nc(N3CCCC3)n2)cc1O`, the EC50 was > 100 µM (inactive).

Regarding `COc1cccc(CNC(=O)CCNS(=O)(=O)c2ccc3[nH]c(=O)oc3c2)c1`, the EC50 was > 100 µM (inactive).

As to `NS(=O)(=O)c1cc(C(=O)NC2CCSc3ccccc32)ccc1Cl` (configuration not stated), the pEC50 was 4.19.

Consider `CN(CCO)c1ccc(C=NNc2ccc([N+](=O)[O-])cc2S(=O)(=O)Nc2ccccc2C(=O)O)cc1`, for which the pEC50 was 4.59.

On to `CN(CC(=O)Nc1cccc(Cl)c1)S(=O)(=O)c1ccc2[nH]c(=O)oc2c1`, for which the EC50 is > 100 µM (inactive).

On to `Cc1cc(C)c(S(=O)(=O)Nc2ccc(O)c(Sc3ncn[nH]3)c2)cc1C`, for which the negative logarithm of the EC50 (pEC50) is 4.26.

`O=C(O)CC(CCc1ccccc1)OC1OC(CO)C(O)C(O)C1O` (configuration not stated): the pEC50 was 4.14.

For `COc1ccc(OC)c(NC(=O)CCNS(=O)(=O)c2ccc3[nH]c(=O)oc3c2)c1`, the EC50 was > 100 µM (inactive).

On to `O=C1C=C(O)c2c(O)cc(O)c(O)c2C1=O`, for which the EC50 is > 100 µM (inactive).

With `CC(C)c1ccc(NC(=O)NC2CCN(CC(=O)Nc3cccc4ccccc34)CC2)cc1`, the pEC50 is 4.25.

On to `N#C/C(=C\c1coc2ccc(O)cc2c1=O)C(=O)Nc1nc2ccccc2s1`, for which the pEC50 was 4.04.

With `Oc1ccc(-c2cn3c(n2)SCC3)cc1O`, the pEC50 is 4.25.

Consider `COc1cc(OC)c(NC(=O)CN(C)S(=O)(=O)c2ccc3[nH]c(=O)oc3c2)cc1Cl`, for which the pEC50 was 4.16.

Take `CCN1/C(=C/C=C/c2oc3ccc(-c4ccccc4)cc3[n+]2CC)Oc2ccc(-c3ccccc3)cc21`: the pEC50 was 4.61.

`CSC1=NSC2=NC(=O)/C(=C/c3coc4ccc(O)cc4c3=O)C(=N)N12`: the pEC50 is 4.57.

`Cc1ccc(N2C(=O)/C(=C/c3ccc(CN(CCC#N)S(C)(=O)=O)o3)C(=O)NC2=S)cc1`: the pEC50 is 4.39.

Take `CCN1/C(=C/c2ccc3cc(C)ccc3[n+]2CC)Sc2ccc3sccc3c21`: the pEC50 was 4.19.

For the compound `Oc1ccc(C[C@H]2NCCc3cc(O)c(O)cc32)cc1O`, the EC50 was > 100 µM (inactive).

As to `O=C(N/N=C/c1ccc(O)c(O)c1)N/N=C/c1ccc(O)c(O)c1`, the pEC50 is 4.53.

In the case of `C[N+](C)(C)C(Cc1ccccc1)C(=O)[O-]` (configuration not stated), the pEC50 was 4.22.

As for `O=C(NN1C(=O)/C(=C/C=C/c2ccco2)SC1=S)c1ccncc1`, the EC50 was > 100 µM (inactive).

Take `CCn1nc(C)c(CN2CCC(C(=O)Nc3cccc(-c4cccc(F)c4)c3)CC2)c1C`: the pEC50 is 4.19.

For `O=C(CCCN1C(=O)/C(=C\c2ccco2)SC1=S)Nc1ccc(O)cc1C(=O)O`, the negative logarithm of the EC50 (pEC50) was 4.35.

As to `COc1cccc(C(C)NC(=O)Nc2cccc(C(F)(F)F)c2)c1` (configuration not stated), the EC50 is > 100 µM (inactive).

As for `COc1ccccc1CNC(=O)CCNS(=O)(=O)c1ccc2[nH]c(=O)oc2c1`, the pEC50 is 4.31.

As to `COc1ccc(OC)c(S(=O)(=O)Nc2ccc(O)c(Sc3ncn[nH]3)c2)c1`, the pEC50 is 4.24.

Regarding `CNc1nnc(-c2cc3ccccc3oc2=O)s1`, the EC50 was > 100 µM (inactive).

Take `O=C(N/N=C/c1cn(Cc2cccc(F)c2)c2ccccc12)c1cc(O)cc(O)c1`: the pEC50 was 4.27.

Regarding `Cc1ccc(/C=C2/SC(=O)NC2=S)o1`, the pEC50 was 4.25.

Turning to `C=CCn1c(SCC(=O)c2ccc(O)c(O)c2)nnc1-c1cccc(OC)c1`, the pEC50 was 4.32.

For `NS(=O)(=O)c1ccc(NC(=S)NC(=O)/C=C/c2ccco2)cc1`, the EC50 was > 100 µM (inactive).

As to `O=C1NC(=S)NC(=O)C1=Cc1ccc2c(c1)CCN2CCCCl`, the pEC50 is 4.24.

With `Oc1cc(O)c2c(c1)O[C@H](c1ccc(O)c(O)c1)[C@H](O)C2`, the pEC50 is 4.29.

With `O=S(=O)(c1cc(O)ccc1O)c1cccc2c(S(=O)(=O)c3cc(O)ccc3O)cccc12`, the negative logarithm of the EC50 (pEC50) is 4.61.

Take `O=C1/C(=C/C=C/c2ccco2)SC(=S)N1NS(=O)(=O)c1ccccc1`: the EC50 is > 100 µM (inactive).

With `Cc1ccc(NC(=O)CN(C)S(=O)(=O)c2ccc3[nH]c(=O)oc3c2)c(C)c1`, the negative-log EC50 (pEC50) was 4.19.

For `CCOC(=O)CN1C(=O)/C(=C2\SC(=S)N(NC(=O)c3cccnc3)C2=O)c2ccccc21`, the pEC50 was 4.45.

For the compound `O=C(O)Cc1ccc(O)c(O)c1`, the EC50 is > 100 µM (inactive).

`O=c1cc(-c2ccc(O)cc2)oc2c(O)c(O)c(O)c(O)c12`: the pEC50 is 4.22.

As to `O=C(COC(=O)c1ccc(Br)o1)Nc1ncc([N+](=O)[O-])s1`, the pEC50 is 4.22.

As for `Cc1ccc(NC(=O)CCNS(=O)(=O)c2ccc3[nH]c(=O)oc3c2)c(Cl)c1`, the pEC50 was 4.58.

For the compound `CC(C(=O)Nc1ccc(C(=O)O)c(O)c1)N1C(=O)/C(=C\c2ccco2)SC1=S` (configuration not stated), the pEC50 is 4.11.

Consider `CC1(C(=O)NNC(=O)c2ccc(=O)oc2)CC1Br` (configuration not stated), for which the pEC50 is 4.24.

`CCOC(=O)C(C)Sc1nc2c(c(=O)[nH]c(=O)n2C)n1C/C=C(/C)Cl` (configuration not stated): the pEC50 is 4.07.

With `CCOc1cc(/C=C2\CCC/C(=C\c3cc(Cl)c(O)c(OCC)c3)C2=O)cc(Cl)c1O`, the EC50 is > 100 µM (inactive).

`O=C1NC(=S)NC(=O)C1=Cc1ccc(Br)s1`: the pEC50 is 4.22.

With `O=C1CC(c2ccc(O)c(O)c2)Oc2cc(O)cc(O)c21` (configuration not stated), the pEC50 was 4.22.

For `Cc1c(CN2CCC(C(=O)Nc3cccc(-c4cccc(Cl)c4)c3)CC2)cnn1C`, the pEC50 was 4.15.

`COc1ccc(N=C2SC(C(N)=O)CC(=O)N2CCc2ccc(OC)c(OC)c2)cc1` (configuration not stated): the pEC50 was 4.58.

Regarding `COc1ccc(NC(=O)CCNS(=O)(=O)c2ccc3[nH]c(=O)oc3c2)cc1Cl`, the pEC50 was 4.27.

`O=C(N/N=C/c1ccc(O)cc1O)C(=O)N/N=C/c1ccc(O)cc1O`: the EC50 was > 100 µM (inactive).

On to `O=C(CCN1C(=O)/C(=C/c2ccco2)SC1=S)Nc1ccc(C(=O)O)c(O)c1`, for which the pEC50 was 4.56.

Take `O=c1oc2cc(O)ccc2s1`: the pEC50 is 4.92.

Take `NNC(=O)c1cc(O)c(O)c(O)c1`: the pEC50 was 4.16.

Turning to `O=C(Cc1nnc(NC(=O)c2ccccc2)s1)N/N=C\c1ccc(O)c(O)c1`, the EC50 is > 100 µM (inactive).

With `COc1ccc(S(=O)(=O)Nc2ccc(O)c(Sc3ncn[nH]3)c2)cc1`, the pEC50 was 4.16.

`COc1cc(/C=C(\C#N)C(=O)c2ccc(O)c(O)c2)cc(I)c1O`: the EC50 was > 100 µM (inactive).

For `NS(=O)(=O)c1ccc(-c2ccc(/C=C3\SC(=S)N(C4CCS(=O)(=O)C4)C3=O)o2)cc1` (configuration not stated), the pEC50 was 4.75.

`O=C(Nc1ccc(Cl)c(C(F)(F)F)c1)NC1CC2CCCC(C1)N2Cc1ccccc1` (configuration not stated): the EC50 is > 100 µM (inactive).

Take `O=C(CN1C(=O)/C(=C/c2ccco2)SC1=S)NC1CCS(=O)(=O)C1` (configuration not stated): the EC50 is > 100 µM (inactive).

With `Cc1cc(/C=C2\SC(=S)NC2=O)c(C)[nH]1`, the pEC50 was 4.21.

For the compound `O=C(CN1CCN(c2ccccc2F)CC1)c1ccc(O)c(O)c1`, the EC50 was > 100 µM (inactive).

As for `Cc1ccc(NS(=O)(=O)c2ccc3[nH]c(=O)oc3c2)c(C)c1`, the negative-log EC50 (pEC50) is 4.05.

On to `O=C(CN1C(=O)/C(=C/c2ccco2)SC1=S)Nc1ccc(C(=O)O)c(O)c1`, for which the EC50 is > 100 µM (inactive).

`O=C(N/N=C/c1ccc([N+](=O)[O-])o1)c1sc2ccccc2c1Cl`: the EC50 was > 100 µM (inactive).

Consider `O=C(/C=C/c1ccco1)NC(=S)Nc1cccc(C(=O)O)c1`, for which the pEC50 was 4.33.

Regarding `O=C(CSc1nc2ccccc2o1)N/N=C/c1ccc(O)c(O)c1`, the pEC50 was 4.17.

Take `CCn1c(CSc2nc3ccccc3s2)nnc1SCC(=O)c1ccc(O)c(O)c1`: the pEC50 was 4.50.

For `Nc1cc2nc3ccccc3oc-2cc1=O`, the pEC50 was 4.24.

For `Cc1cc(=O)[nH]c(N/N=C/c2ccc(O)c(O)c2)n1`, the pEC50 was 4.18.

In the case of `Cc1ccc(C(=O)Nc2nnc(CC(=O)N/N=C/c3ccc(O)c(O)c3)s2)cc1`, the pEC50 was 4.30.

Take `N#Cc1cccc(NC(=O)CCNS(=O)(=O)c2ccc3[nH]c(=O)oc3c2)c1`: the pEC50 is 4.05.

With `CC1CC(=O)c2c(cc3c(-c4c(O)cc(O)c5c(O)c6c(cc45)OC(C)CC6=O)c(O)cc(O)c3c2O)O1` (configuration not stated), the pEC50 was 4.68.

Regarding `CN(C)c1ccc(N=Nc2nc3ccccc3n2C)cc1`, the pEC50 is 4.32.

As for `O=C(O)C(c1ccccc1)N1C(=O)/C(=C\c2ccc(O)c(O)c2)SC1=S` (configuration not stated), the pEC50 is 4.20.

`S=C(NCc1ccccc1)NC1CCSc2ccccc21` (configuration not stated): the EC50 was > 100 µM (inactive).

For the compound `Cc1cc(O)c2c(c1O)C(=O)[C@]13C(=C2O)C(=O)[C@@H]2[C@@H](O)[C@H]1[C@@H]1[C@H](O)[C@H]3C(=O)C3=C(O)c4c(O)cc(C)c(O)c4C(=O)[C@]312`, the pEC50 was 4.18.

Regarding `O=C(CSc1n[nH]c(-c2ccccc2)n1)c1ccc(O)c(O)c1`, the pEC50 was 4.19.

In the case of `Oc1ccc(/C=N/N=C/c2ccc(O)c(O)c2)cc1O`, the pEC50 was 4.17.

On to `N#C/C(=C\c1ccc(O)c(O)c1)C(=O)c1ccc(O)c(O)c1`, for which the pEC50 was 5.10.

In the case of `O=[N+]([O-])c1cc(S(=O)(=O)c2ccc(O)c([N+](=O)[O-])c2)ccc1O`, the EC50 was > 100 µM (inactive).

For the compound `Cc1ccc(CN2C3CCCC2CC(NC(=S)NCc2ccccc2)C3)cc1` (configuration not stated), the EC50 is > 100 µM (inactive).

As to `Oc1ccc(-c2csc(Nc3ccccn3)n2)cc1O`, the pEC50 was 4.34.

As for `O=C(O)CC(C(=O)O)N1C(=O)/C(=C/c2ccc(-c3nc4ccccc4s3)o2)SC1=S` (configuration not stated), the negative-log EC50 (pEC50) is 4.22.

As to `Cc1ccc(C)c(S(=O)(=O)Nc2ccc(O)c(Sc3ncn[nH]3)c2)c1`, the pEC50 is 4.88.

Regarding `O=C1/C(=C/C=C/c2ccco2)SC(=S)N1c1ccc(O)cc1`, the pEC50 is 4.21.
